Test results published in ChEMBL document CHEMBL3102853, “Carbonic anhydrase inhibitors. Synthesis, and molecular structure of novel series N-substituted N'-(2-arylmethylthio-4-chloro-5-methylbenzenesulfonyl)guanidines and their inhibition of human cytosolic isozymes I and II and the transmembrane tumor-associated isozymes IX and XII” (Eur J Med Chem, 2014).
The source made the active and inactive calls. The calls are words filed in the database; no cut-off is given here.

Legend:
Carbonic anhydrase 9 = Carbonic anhydrase 9 (Homo sapiens, UniProt Q16790)
MDA-MB-468 = assay: Cytotoxicity against human MDA-MB-468 cells at 10 uM; assay type: functional; details: read-out: GI
NCI-H460 = assay: Cytotoxicity against human NCI-H460 cells at 10 uM; assay type: functional
HT-29 = assay: Cytotoxicity against human HT-29 cells at 10 uM; assay type: functional
RPMI-8226 = assay: Cytotoxicity against human RPMI8226 cells at 10 uM; assay type: functional; details: read-out: GI
KM12 = assay: Cytotoxicity against human KM12 cells at 10 uM; assay type: functional; details: read-out: GI
SNB-75 = assay: Cytotoxicity against human SNB75 cells at 10 uM; assay type: functional; details: read-out: GI
SF-268 = assay: Cytotoxicity against human SF268 cells at 10 uM; assay type: functional; details: read-out: GI
SW-620 = assay: Cytotoxicity against human SW620 cells at 10 uM; assay type: functional
PC-3 = assay: Cytotoxicity against human PC3 cells at 10 uM; assay type: functional; details: read-out: GI
SR = assay: Cytotoxicity against human SR cells at 10 uM; assay type: functional; details: read-out: GI
MOLT-4 = assay: Cytotoxicity against human MOLT4 cells at 10 uM; assay type: functional; details: read-out: GI
DU-145 = assay: Cytotoxicity against human DU145 cells at 10 uM; assay type: functional
OVCAR-3 = assay: Cytotoxicity against human OVCAR3 cells at 10 uM; assay type: functional; details: read-out: GI
A498 = assay: Cytotoxicity against human A498 cells at 10 uM; assay type: functional
T47D = assay: Cytotoxicity against human T47D cells at 10 uM; assay type: functional; details: read-out: GI
SK-MEL-2 = assay: Cytotoxicity against human SK-MEL-2 cells at 10 uM; assay type: functional; details: read-out: GI
[1] = Cytotoxicity against human Hs 578T cells at 10 uM; assay type: functional; details: read-out: GI
MCF7 = assay: Cytotoxicity against human MCF7 cells at 10 uM; assay type: functional; details: read-out: GI
A549 = assay: Cytotoxicity against human A549 cells at 10 uM; assay type: functional; details: read-out: GI
[2] = Cytotoxicity against human NCI-ADR-RES cells at 10 uM; assay type: functional; details: read-out: GI
HOP-92 = assay: Cytotoxicity against human HOP92 cells at 10 uM; assay type: functional; details: read-out: GI
UACC-62 = assay: Cytotoxicity against human UACC62 cells at 10 uM; assay type: functional; details: read-out: GI
LOX IMVI = assay: Cytotoxicity against human LOXIMVI cells at 10 uM; assay type: functional; details: read-out: GI

`Cc1cc(S(=O)(=O)NC(=N)NNc2ccc(S(N)(=O)=O)cc2)c(SCc2cccc(C(F)(F)F)c2)cc1Cl` showed a Ki (Carbonic anhydrase 9) of 21 nM.
With `Cc1cc(S(=O)(=O)NC(=N)Nc2ccc(S(N)(=O)=O)cc2)c(SCc2cc3c(cc2Cl)OCO3)cc1Cl` the inhibition of growth at 10 µM (MDA-MB-468) was 41%, the “growth inhibition (GI)” value (NCI-H460) was “inactive” and the “growth inhibition (GI)” value (HT-29) was “inactive”. The inhibition of growth at 10 µM (RPMI-8226) was 10%, the inhibition of growth at 10 µM (KM12) was 8% and the inhibition of growth at 10 µM (SNB-75) was 22%. For the same compound, the inhibition of growth at 10 µM (SF-268) was 5%, the “growth inhibition (GI)” value (SW-620) was “inactive” and the inhibition of growth at 10 µM (PC-3) was 25%. The inhibition of growth at 10 µM (SR) was 25%, the inhibition of growth at 10 µM (MOLT-4) was 20% and the “growth inhibition (GI)” value (DU-145) was “inactive”. The inhibition of growth at 10 µM (OVCAR-3) was 12%, the “growth inhibition (GI)” value (A498) was “inactive” and the inhibition of growth at 10 µM (T47D) was 23%. For the same compound, the inhibition of growth at 10 µM (SK-MEL-2) was 9%, the inhibition of growth at 10 µM [1] was 2% and the inhibition of growth at 10 µM (MCF7) was 4%. For the same compound, the inhibition of growth at 10 µM (A549) was 4%, the inhibition of growth at 10 µM [2] was 1% and the inhibition of growth at 10 µM (HOP-92) was 29%. It also gave an inhibition of growth at 10 µM (UACC-62) of 17% and an inhibition of growth at 10 µM (LOX IMVI) of 8%.
